We go through one molecule from US20140094521A1, “BENZYLAMINE DERIVATIVE” (priority 2011, published 2014).

Assay type in all cases: cell-based
Test [1] deals with Human multiple myeloma cell line RPMI8226. Nature of the test: Anticancer activity against multiple myeloma cell (Cell Counting Kit-8, 3 days). Particulars: RPMI-8226, 72 h, read-out: IC50 value against a multiple myeloma cell. The protocol:
Human multiple myeloma cell line RPMI8226 was seeded on a 96 well plate in a density of 1×10^4 cells/well, and incubated under 5% carbon dioxide atmosphere at 37° C. overnight. Separately, the compound obtained in Example 2 was dissolved in dimethylsulfoxide, and added to each well so that the final concentration of the compound became 0.5 μM, 1 μM, 2 μM, 3 μM, 12.5 μM, 25 μM or 50 μM.
In addition, melphalan, which is a multiple myeloma therapeutic agent, was added to each well so that the final concentration of the compound became 10 μM, 20 μM, 30 μM, 40 μM or 50 μM as positive controls for comparison. Further, an experimental case in which only dimethylsulfoxide was added in the final concentration of 0.5 v/v % without adding the compound was provided.
Then, after the cell was cultured under 5% carbon dioxide atmosphere at 37° C. for 3 days, an absorbance of formazan, which is an orange pigment produced by a living cell, at the wavelength of 420 nm was measured using a reagent for measuring cell proliferation/cytotoxicity (manufactured by Dojin Chemical Co., Cell Counting Kit-8). […] In addition, IC50 values were calculated from the obtained results.
For orientation: Tetrazolium dyes change colour on reduction, which living cells bring about.

Test [2] concerns SP cell of human multiple myeloma cell line RPMI8226. Kind of test: Anticancer activity against SP cell (Hoechst33342 flow cytometry). Conditions: 5 μM. The method, then:
A stem cell can undergo differentiation into various tissues and cells such as a hematopoietic stem cell, and has the quality to exclude fluorescent chemical substance such as Hoechst33258 extracellularly. […] A cell having such properties is called as an SP cell, i.e. Side Population Cell. […] Therefore, an effect of the present invention compound against a cancerous SP cell was examined.
Specifically, human multiple myeloma cell line RPMI8226 was incubated in the presence of the present invention compound similarly to Example 4. The cell was dispersed in 3% FBS DMEH so that the concentration became 1×10^6 cells/mL. A temperature of the dispersion was increased to 37° C., and then Hoechst33342 was added thereto so that the concentration thereof became 5 μg/ml. The mixture was incubated at 37° C. for 60 minutes under a shaded state with stirring every 20 minutes. Then, the mixture was centrifuged at 800×g for 3 minutes, and the supernatant was removed. Further, a washing procedure in which cooled 2% FES PBS was added, the mixture was centrifuged and the supernatant was removed was repeated two times. Separately, propidium iodide was dissolved in PBS to obtain a 200 μg/mL solution. […] The emitted fluorescence was passed through a bandpass filters of 450 nm and 675 nm, and deployed to obtain a two-dimensional dot plot. […]
(Flow cytometry measures light scatter and fluorescence of single cells or particles in a stream.)

For test [3], the system named is Human acute myelogenous leukemia cell line KG1. Kind of test: Survival rate of blood cancer cells (WST-8, 72 hours). Conditions: read-out: EC50, Acute myelogenous leukemia cell. The protocol:
(§1) Human acute myelogenous leukemia cell line KG1 and human promyelocytic leukemia cell line HL60 in addition to human multiple myeloma cell line RPMI8226 were seeded in a highly nutrient medium containing 10% FES (RPMI1640, 100 μL) in a density of 1×10^3 cells/well. The cells were incubated under 5% carbon dioxide atmosphere at 37° C. overnight. Separately, the compound of Example 2 was dissolved in DMSO and the obtained solution was diluted with the same culture medium. The mixture was added to each well so that the final concentrations of the compound became 0.39 μM, 0.78 μM, 1.56 μM, 3.13 μM, 6.25 μM, 12.5 μM or 50 μM.
(§2) In addition, melphalan, which is a multiple myeloma therapeutic agent, was added to each well at the same final concentrations as positive controls for comparison. Further, an experimental case in which only dimethylsulfoxide was added in the final concentration of 0.2 to 0.8 v/v % without adding the compound was provided.
(§3) Then, after the cells were cultured under 5% carbon dioxide atmosphere at 37° C. for 72 hours, the culture medium was removed and a culture medium obtained by mixing 100 μL of the above culture medium and 10 μL of WST-8, which is a reagent for measuring a cell number, was added to each well. After the cells were cultured under 5% carbon dioxide atmosphere at 37° C. for 2 hours, an absorbance at 450 nm was measured. The absorbance value when the cells were treated with DMSO only was set to be 100%, and a ratio of absorbance values at each concentration of the present invention compound or melphalan relative to the value were calculated as survival rate of each blood cancer cell. In addition, EC50, i.e. 50% effective concentration value, of each compound against each blood cancer cell was calculated from the obtained results.

In test [4] the test system is Human multiple myeloma cell line RPMI8226. The description is as above. Particulars: RPMI-8226, 72 h, read-out: EC50, Multiple myeloma cell. The protocol: as §1, §2, §3
Test [5] deals with human promyelocytic leukemia cell line HL60. Described as above. Conditions: HL-60, 72 h, read-out: EC50, Promyelocytic leukemia cell. The protocol:
as §1, §2, §3

By IC50 is commonly meant the concentration that inhibits the measured activity by half. One may read the EC50 as the concentration that produces a half-maximal response. Consider `N[C@@H](Cc1ccc(N(CCCl)CCCl)cc1)C(=O)O` [Melphalan, melphalan], for which the IC50 in test [1] was determined as 21 µM. Moreover, in test [2] (control (0.5% DMSO only) 0.680 ± 0.0173%), the “ratio of stained cells in SP region relative to the total cells” value turned out to be 0.563 ± 0.0777%. Further, the “ratio of stained cells in Non-SP region relative to the total cells” value in test [2] (control (0.5% DMSO only) 19.2 ± 0.295%) turned out to be 5.05 ± 0.414%. Further, the results for the EC50 in test [3], in test [4] and in test [5] were 3.69 µM, 9.82 µM and 0.734 µM, respectively.
